{
  "source": "ChEMBL document CHEMBL1155158",
  "about": "“Early bactericidal activity of high-dose rifampin in patients with pulmonary tuberculosis evidenced by positive sputum smears” (Antimicrob Agents Chemother, 2007)",
  "key": {"[1]": {"test": "Tmax in Mycobacterium tuberculosis infected patient at 12 mg/kg", "assay_type": "ADME, organism-based", "parameters": "dose 12 mg/kg", "details": "human, in vivo"}, "[2]": {"tested_on": "Mycobacterium tuberculosis", "test": "Antimycobacterial activity against Mycobacterium tuberculosis infected patient assessed as sputum bacterial count at 20 mg/kg, po administered daily for 2 days", "assay_type": "functional"}, "clinical [3]": {"test": "clinical", "details": "human, in vivo, 12 mg/kg", "description": "Cmax in Mycobacterium tuberculosis infected patient at 12 mg/kg"}, "[4]": {"tested_on": "Mycobacterium tuberculosis", "test": "Antimycobacterial activity against Mycobacterium tuberculosis infected patient assessed as sputum bacterial count at 600 mg, po after 2 days", "assay_type": "functional"}, "[5]": {"test": "Tmax in Mycobacterium tuberculosis infected patient at 3 mg/kg", "assay_type": "ADME, organism-based", "parameters": "dose 3 mg/kg", "details": "human, in vivo"}, "Homo sapiens [6]": {"tested_on": "Homo sapiens", "test": "AUC (0 to infinity) in Mycobacterium tuberculosis infected patient at 6 mg/kg", "assay_type": "ADME, organism-based, Plasma", "parameters": "time infinity, dose 6 mg/kg", "details": "in vivo"}, "Homo sapiens [7]": {"tested_on": "Homo sapiens", "test": "AUC (0 to infinity) in Mycobacterium tuberculosis infected patient at 3 mg/kg", "assay_type": "ADME, organism-based, Plasma", "parameters": "time infinity, dose 3 mg/kg", "details": "in vivo"}, "clinical [8]": {"test": "clinical", "details": "human, in vivo, po, 20 mg/kg", "description": "Cmax in Mycobacterium tuberculosis infected patient at 20 mg/kg, po administered daily for 5 days"}, "[9]": {"test": "Tmax in Mycobacterium tuberculosis infected patient at 6 mg/kg", "assay_type": "ADME, organism-based", "parameters": "dose 6 mg/kg", "details": "human, in vivo"}, "clinical [10]": {"test": "clinical", "details": "human, in vivo, 6 mg/kg", "description": "Cmax in Mycobacterium tuberculosis infected patient at 6 mg/kg"}, "[11]": {"tested_on": "Mycobacterium tuberculosis", "test": "Antimycobacterial activity against Mycobacterium tuberculosis infected patient assessed as sputum bacterial count at 20 mg/kg, po administered daily for 5 days", "assay_type": "functional"}, "clinical [12]": {"test": "clinical", "details": "human, in vivo, 3 mg/kg", "description": "Cmax in Mycobacterium tuberculosis infected patient at 3 mg/kg"}, "[13]": {"test": "Tmax in Mycobacterium tuberculosis infected patient at 20 mg/kg, po administered daily for 5 days", "assay_type": "ADME, organism-based", "parameters": "dose 20 mg/kg, route oral", "details": "human, in vivo"}},
  "data": [
    {"smiles": "CO[C@H]1/C=C/O[C@@]2(C)Oc3c(C)c(O)c4c(O)c(c(/C=N/N5CCN(C)CC5)c(O)c4c3C2=O)NC(=O)/C(C)=C\\C=C\\[C@H](C)[C@H](O)[C@@H](C)[C@@H](O)[C@@H](C)[C@H](OC(C)=O)[C@@H]1C", "note": "[RIFAMPIN]", "values": [
      {"measurement": "Tmax", "setting": "[1]", "value": 2.5, "unit": "h"},
      {"measurement": "log10CFU/ml", "setting": "[2]", "value": 0.44},
      {"measurement": "Cmax", "setting": "clinical [3]", "value": 13000, "unit": "ng/mL"},
      {"measurement": "log10CFU/ml", "setting": "[4]", "value": 0.221},
      {"measurement": "Tmax", "setting": "[5]", "value": 3.12, "unit": "h"},
      {"measurement": "AUC", "setting": "Homo sapiens [6]", "value": 24.5, "unit": "µg/mL"},
      {"measurement": "AUC", "setting": "Homo sapiens [7]", "value": 13.1, "unit": "µg/mL"},
      {"measurement": "Cmax at 120 h", "setting": "clinical [8]", "value": 14000, "unit": "ng/mL"},
      {"measurement": "Tmax", "setting": "[9]", "value": 3.67, "unit": "h"},
      {"measurement": "Cmax", "setting": "clinical [10]", "value": 3190, "unit": "ng/mL"},
      {"measurement": "log10CFU/ml", "setting": "[11]", "value": 0.3},
      {"measurement": "Cmax", "setting": "clinical [12]", "value": 2530, "unit": "ng/mL"},
      {"measurement": "Tmax", "setting": "[13]", "value": 3.27, "unit": "h"}
    ]}
  ]
}
